From patent publication US9877681B2, ““Micro-patch” for assessment of the local microvasculature and microcirculatory vasoreactivity” (priority 2007, dated 2018)
Entries after “also recorded” stand apart in the source; their conditions may differ. Like-named read-outs stand apart in the source and are kept apart here.

Columns and labels:
[1] = tested on: local microvasculature (forehead); conditions: scopolamine applied with/before nicotine, FIG. 18
[2] = tested on: local microvasculature (forehead); assay: Study B: acetylcholine and nitroglycerin micro-patches, laser Doppler flowmetry of forehead perfusion in healthy volunteers; format: in vivo, human; conditions: for increase in laser Doppler flowmetry readings, mean (95% CI): 10 healthy volunteers, forehead, plateau vs baseline; for time to marked rise in laser Doppler flowmetry voltage (flux) after drug application: each healthy volunteer; for blood flow at the micro-patch site, representative tracings: one healthy subject, FIG. 19
Text: (§1) Mixing was accomplished to achieve a final product that was smooth and free of abrasive particles. Based on trial and error testing, it was elected to pursue testing with acetylcholine chloride powder dissolved in water for placement on an adherent surface (e.g., clear tape). […] This dose is proportional to doses of MIOCHOL-E,™ (that is, a clinically available acetylcholine preparation that is used to produce papillary constriction (miosis) during cataract surgery) that had been tested in preliminary trials. However, the agent used for micro-patches can be superconcentrated compared to the solution used for intraocular injection—made possible because of the small delivery area.
The dry side of the acetylcholine “micro-patch” was adhered to the end of a laser Doppler flowmetry probe (a PF 5010 with Probe Model 407, Perimed, Sweden in accordance with a preferred embodiment) (see FIGS. 1 and 2). A sham drug micro-patch was made in the same way with 0.02-mL of HPLC-grade water instead of acetylcholine solution. Before micro-patch application, a DOUBLE-STICK DISC™ (3M Health Care, Neuss, Germany) (that is, the double-sided adhesive ring 6 discussed above) with an overall diameter of 38.1-mm and a central hole (or opening) diameter of 8.7-mm is placed at the site to be tested. The double-sided adhesive ring 6 serves as an adherent base onto which a monitor such as a laser Doppler flowmetry probe 1 is placed as well as to define the area (59.4-mm^2) for drug application. In addition to providing for targeted adherence, when placed between the micro-patch 2 and the study surface (as shown in FIG. 1) this further limits the area of drug delivery by providing a barrier to drug delivery from the outer regions of the micro-patch 2. As detailed below, this delivered as much as 10% of that used to constrict the pupil during cataract surgery Dose-response curve can be assessed with serial dilutions. […] Laser Doppler flowmetry is an exemplary form of potential monitoring (used in each of the Table 2 studies).
The creation of a nitroglycerin micro-patch so as to enable concurrent monitoring of an endothelium-dependent transdermal preparation (acetylcholine, described above) and an endothelium-independent vasodilator (nitroglycerin) is simpler than the creation of the acetylcholine micro-patch. […] The present invention provides not only for the application of the disclosed method for monitoring the local circulation but the tailoring of the micro-patch to ensure effective delivery throughout the monitoring site while avoiding delivery of excess drug that might predispose to remote and/or systemic effects. For a single laser Doppler flowmetry probe, the nitroglycerin micro-patch may be obtained by using a standard hole-punch to cut a 6-mm diameter (28.3-mm^2 area) section of a full size 0.6 mg/hr MINITRAN™ nitroglycerin patch (3M, Minnesota). Alternatively, for applications where one wishes to move the laser Doppler flowmetry probe so as to encompass a larger area (as with the inventive assembly in FIG. 16), a small rectangle may be appropriate. Such patches are designed for homogeneous delivery of drug at a rate of 0.03-mg/hour per 100-mm^2 area of patch, such that the section used in the inventive micro-patch delivered at a rate of approximately 0.008-mg/hr. Although not currently available, lesser or higher concentrations of nitroglycerin may be used for micro-patches, pending dose response studies to confirm local efficacy and lack of systemic effects. The nitroglycerin micro-patch then is placed onto a double-sided adhesive ring for adherence to a monitoring probe (see FIGS. 1 and 2) or it may be placed on the tissue under an elevated support assembly 131 or scanner (described below).
Methods: For each session, subjects lay on a bed in a semi-recumbent position in a temperature-controlled room (24+1° C.). A three-lead electrocardiogram and a noninvasive brachial artery blood pressure cuff were applied. […]

[3] = tested on: local microvasculature (forehead); assay: Study B: acetylcholine and nitroglycerin micro-patches, laser Doppler flowmetry of forehead perfusion in patients with diabetes; format: in vivo, human; conditions: 10 diabetic patients with retinopathy
Description: Methods: For each session, subjects lay on a bed in a semi-recumbent position in a temperature-controlled room (24+1° C.). A three-lead electrocardiogram and a noninvasive brachial artery blood pressure cuff were applied. The three laser Doppler flowmetry probes with customized acetylcholine, nitroglycerin, and placebo micro-patches (as described above) attached were adhered onto the three double-stick discs on the forehead so as to enable undisturbed monitoring and drug delivery. Laser Doppler flowmetry monitoring was performed continuously at each site until a vasodilatory plateau was maintained for ≧3 minutes or for a maximum of 20 minutes. Data were collected at a rate of 1000 Hz using Chart for Windows (ADlnstruments, Colorado Springs, Colo.).
The local microvascular effects of transdermal acetylcholine and nitroglycerin were first tested in 10 healthy volunteers (7 males, 3 females; mean age 36.1, range 19 to 56 years) without vascular disease or diabetes. […]
An investigator blinded to the status of the subject and to the nature of the study site assessed the laser Doppler tracing at each study site. […] The effects of the single dose of acetylcholine was compared to the single dose of nitroglycerin in the healthy volunteers, with the differences analyzed using Wilcoxon Signed Rank Test (WSRT). […]

forehead blood flow = assay: Non-iontophoretic transdermal acetylcholine at the forehead, laser Doppler flowmetry (Table 2); format: in vivo, human; conditions: Silverman, <0.25 ml of 1%, inc
Text: as §1
The dry side of the acetylcholine “micro-patch” was adhered to the end of a laser Doppler flowmetry probe (a PF 5010 with Probe Model 407, Perimed, Sweden in accordance with a preferred embodiment) (see FIGS. 1 and 2). A sham drug micro-patch was made in the same way with 0.02-mL of HPLC-grade water instead of acetylcholine solution. […] As detailed below, this delivered as much as 10% of that used to constrict the pupil during cataract surgery Dose-response curve can be assessed with serial dilutions. […]

forearm blood flow = conditions: Iontophoresis, inc, cited from earlier work
[4] = tested on: local microvasculature (forehead); assay: Laser Doppler scanner imaging of micro-patch sites on the forehead; format: in vivo, human; conditions: several minutes after application, FIGS. 22-24
Text: Another alternative is provided by the laser Doppler scanning imager. […] [Wardell K, Braverman I M, Silverman D G, Nilsson G E: Spatial heterogeneity in normal skin perfusion recorded with laser Doppler imaging and flowmetry. Microvascular Research 48(1):26-38, 1994 July]. […] This is accomplished by rapidly scanning an area by a shifting light that is sequentially directed to successive study sites by a mirror. […] This is because the laser Doppler scanner typically monitors a given site for fractions of a second. […] Compromises include rapidly scanning all sites at repeat intervals for a long enough period to overcome the effects of pulsations and oscillations. However, a relatively long interval is required to ensure this. Thus, the laser Doppler scanner mitigates spatial variability at the expense of temporal variability (e.g., beat-to-pulsations with each heart beat as well as oscillations in activity as a component of autonomic regulation of blood vessels).

[5] = tested on: local microvasculature (finger); assay: Micro-patch applied to the finger, laser Doppler flowmetry; format: in vivo, human
Description: The difference likewise is seen in results generated by a laser Doppler scanner (discussed below).

[6] = tested on: local microvasculature (forehead); assay: Study D: impact of fatty meal on responses to nitroglycerin and acetylcholine micro-patches; format: in vivo, human; conditions: 10 minutes after patch application
Description: Two hours later, subjects underwent application of acetylcholine and nitroglycerin micro-patches. As described above, the former was prepared by mixing 100 mg of solid acetylcholine with […] of sterile water. From this solution (concentration of 14.3 mg/ml) we used an aliquot of just under 0.14 ml (less than 10% of the standard 20 mg dose injected into the eye during cataract surgery). The latter consisted of a 1.4 cm×1.4 cm translucent square (cut from a full-sized nitroglycerin patch) to delivery 0.008 mg/hr of nitroglycerin to the study site. Before each patch application, seven sites of the forehead were monitored with a commercially available integrating laser Doppler flowmetry probe that averages the output from several closely packed light-transmitting channels (to partially overcome spatial heterogeneity). At 10 minutes after patch application, readings were repeated. Changes were analyzed using paired t-test.

[7] = tested on: local microvasculature (finger); assay: Laser Doppler scanner imaging of micro-patch sites on the fingers; format: in vivo, human; conditions: FIG. 25
Text: Nitroglycerin induces vasodilation independent of the parasympathetic pathways. […] Anesthesiology 2004;101:A246] and phenylephrine [Silverman D G, Stout R G: Distinction between atropine-sensitive control of microvascular and cardiac oscillatory activity. Microvasc Res 63:196-208, 2002].

[8] = tested on: local microvasculature (forehead)
Description: Prior to the customization of nitroglycerin according to the present invention, nicotine was customized in accordance with the purposes of present invention. This entailed customization of a commercially available clear NICODERM patch, nicotine delivery patch, (with 0.83 mg of nicotine/cm^2). Again, lesser or higher concentrations may be used for a micro-patch; these are not currently available, since currently available nicotine patches delivery a fixed dose/cm^2 patch such that a higher systemic dose is obtained by using a larger patch.
The preliminary investigations with nicotine micro-patches (0.83 mg/cm^2) entailed customizing a section of the micro-patch so that it adhered to an area of skin that was sufficient to deliver drug to the area under a laser Doppler flowmetry probe and that enabled attachment of the laser Doppler flowmetry probe to an upper surface of the micro-patch.

local microvasculature = assay: Fast Fourier transformation (FFT) of signals at micro-patch sites; format: in vivo, human
Description: This leads to present disclosure of a means to overcome the potential confusion: I herein introduce the application of spectral domain analysis [fast Fourier transformation (FFT), alluded to above, and variations thereof such as joint time frequency)] to characterize PTT values. This enables comparative assessment of: FFT of PTTPPG (primarily influenced by arrival of the stroke volume at underlying artery), FFT of PTTlaserDoppler (arrival of stroke volume at microvasculature), and FFT of PTTPPG-LaserDoppler.
Once combined monitoring becomes available at a given site, and then concurrent FFT analysis of PTT of artery, acv and vein will enable one to delineate the sites of microvascular and neuro-microvascular activity. In addition to micro-patch induced changes in readings between sites of measurement (e.g. PTT), we can also measure changes at sites of measurement (e.g., mean, heights). Again, confounders such as different units and differing criteria for onset may be avoided with FFT.

Compound	increase in laser Doppler flowmetry readings, mean (95% CI) [2]	time to marked rise in laser Doppler flowmetry voltage (flux) after drug application [2]	blood flow at the micro-patch site, representative tracings [2]	mean percent increase in blood flow (95% CI) [3]	relative blood flow at the micro-patch site (laser Doppler scanner) [4]	change in flow when applied to the finger [5]	flow at the micro-patch site (laser Doppler scanner) [7]	further results
CN1[C@@H]2C[C@@H](OC(=O)[C@H](CO)c3ccccc3)C[C@H]1[C@@H]1O[C@@H]12 [scopolamine]								effect of scopolamine on the nicotine-induced increase in perfusion [1]: blunted; also recorded: inhibition
CC(=O)OCC[N+](C)(C)C.[Cl-] [acetylcholine, acetylcholine chloride]	406% (245%-566%)	two	Prompt increases in blood flow	156% (91%-221%)	increase in relative blood flow; also recorded: increased blood flow			change in systemic blood pressure and heart rate ([2]; human, in vivo): lack of significant change; Change in Blood Flow (forehead blood flow): 50-250%; Change in Blood Flow (forearm blood flow; Morris, approx 0.25 ml of 1%): 50-100%; Change in Blood Flow (forearm blood flow; Noon, approx 0.25 ml of 2%): 1000%
O=[N+]([O-])OCC(CO[N+](=O)[O-])O[N+](=O)[O-] [nitroglycerin]	365% (179%-550%)	two	Prompt increases in blood flow	116% (79%-153%)	increase in relative blood flow; also recorded: caused vasodilation; also recorded: Increased flow	significant change	induced vasodilation; also recorded: flow increased	change in systemic blood pressure and heart rate ([2]; healthy volunteers): lack of significant change; nitroglycerin/acetylcholine ratio of induced increase ([6]; two hours after fat-laden meal): 1.31; nitroglycerin/acetylcholine ratio of induced increase ([6]; two hours after nonfat meal): 0.94
CN1CCCC1c1cccnc1 (stereo not drawn) [nicotine]					increase in relative blood flow; also recorded: caused vasodilation; also recorded: greatest flow	no significant change	lack of increased flow	increase in flow at the active site ([8]; button-sized translucent micro-patch, forehead of seven healthy subjects): 388.4%; response at a remote site or in systemic indices (heart rate, blood pressure, flow at other sites) ([8]; drug delivery limited to the micro-patch): no response; flow at the nicotine site relative to baseline (laser Doppler flowmetry) ([8]; forehead, between 5 and 15 minutes after application, FIG. 17): approximately 300 % of baseline; increase in local blood flow ([8]; transdermal application at the forehead, within 30 min): 2-5 fold; local microvasculature's response to the micro-patch ([8]; transdermal micro-patch): vasodilation; change in the 0.03-0.12 Hz frequency range by FFT (local microvasculature; 0.03-0.12 Hz): marked increase; oscillatory activity at micro-patch site by FFT (local microvasculature; in vivo): marked oscillatory activity
